For this experiment, the system named is HCT-116 colorectal cancer cells. The experiment can be described thus: Cell viability (alamarBlue) assay in HCT-116 cells. It is filed as cell-based, Human. Particulars: 72 hr exposure, four parameter logistic fit. Here is the method: Human HCT-116 colorectal cancer cells (CRC) and MDA-MB-231 breast cancer cells were purchased from the American Type Culture Collection (Manassas, Va.) and grown following ATCC recommendations, in the presence of fetal bovine serum (10%), 2 mM L-glutamine and antibiotics (100 IU/ml penicillin and 100 μg/ml streptomycin, Sigma). Cells were maintained at 37° C., 5% CO2 atmosphere.
Cell viability was measured using the alamarBlue assay (Invitrogen). In brief, cells were plated in 96-well plates in triplicate at 5K cells per well and incubated at 37° C., 5% CO2 atmosphere for 24 hr prior to the addition of drug or vehicle (0.3% DMSO) to the culture medium. After 72 hr, 10 μl/well alamarBlue was added to the wells and incubated for an additional 3 hr at 37° C., 5% CO2 atmosphere. Fluorescence ([…]/590EM nM) was measured with a SpectraMax microplate reader (Molecular Devices) and the resulting data were used to calculate cell viability, normalized to vehicle control. […]
Combinations between ganetespib and cisplatin were then performed in HCT-116 cells concurrently based on the IC50 for each agent in matrix format with 54 combination pairs for each drug. The combined drugs, as well as each drug alone, were incubated with the cells for 3 days and the surviving fraction of cells relative to control was determined using the alamarBlue assay.

The term IC50 denotes the concentration that gives 50% inhibition. As for `N.N.[Cl][Pt][Cl]` [cisplatin], the IC50 is around 5700 nM.
Take `CC(C)c1cc(-c2nnc(O)n2-c2ccc3c(ccn3C)c2)c(O)cc1O` [ganetespib, 3-(2,4-DIHYDROXY-5- ISOPROPYL-PHENYL)-4-(1- METHYL-INDOL-5-YL)-5- HYDROXY-[1,2,4] TRIAZOLE]: the IC50 (Homo sapiens) was around 32 nM.

The values are drawn from patent publication US10500193B2, “Combination therapy of HSP90 inhibitors with platinum-containing agents” (SYNTA PHARMACEUTICALS CORP., priority 2011, dated 2019).
